System: Digitaria insularis (DIGIN)
Experiment: Post-emergence application in field trials, herbicidal activity (damage 0-100% vs untreated control)
Type: in vivo
Conditions: solo, post-emergence field trial, 21 DAT, 0.5% MSO; for % herbicidal activity B: 240 g ai/ha; for % herbicidal activity A-1: 50 g ai/ha
Description: In the examples below, using the method of S. R. Colby (1967) “Calculating synergistic and antagonistic responses of herbicide combinations”, Weeds 15, p. 22ff., the value E, which is expected if the activity of the individual active compounds is only additive, was calculated:
[formula] • where • X=percent activity using active herbicide A at an application rate a; • Y=percent activity using active herbicide B (e.g. clethodim) at an application rate b; • E=expected activity (in %) by A+B at application rates a+b.
If the value found experimentally is higher than the value E calculated according to Colby, a synergistic effect is present.
On field test sites, natural weed infestation or seeded weeds were treated post-emergence of the weeds.
In the field trials, the weeds were treated as indicated below.
In the following experiments, the herbicidal activity for the individual herbicidal compositions (solo and mixture applications) was assessed at the indicated days after treatment (DAT). The assessments for the damage on undesired weeds caused by the composition was carried out using a scale from 0 to 100%, compared to the untreated control plants. Here, 0 means no damage and 100 means complete destruction of the plants.
Herbicide A-1 and clethodim were, together with addition of 0.5% MSO (methylated sed oil) as adjuvant, formulated in water as distribution medium (water volume 200 l/ha) and sprayed with commercial flat fan nozzles.

Row | Structure (SMILES) | % herbicidal activity B (DIGIN height 5-15 cm) | % herbicidal activity B (DIGIN height 60-80 cm) | % herbicidal activity A-1 (DIGIN height 5-15 cm) | % herbicidal activity A-1 (DIGIN height 60-80 cm)
1 | CCSC(C)CC1CC(=O)C(/C(CC)=N/OC/C=C/Cl)=C(O)C1 (stereo not shown) [B, clethodim] | 68% | 57% | – | –
2 | CCOC(=O)COc1ccccc1Oc1nc(-n2c(=O)cc(C(F)(F)F)n(C)c2=O)c(F)cc1Cl [A-1, ethyl 2-[2-[[3-chloro-5-fluoro-6-[3-methyl-2,6-dioxo-4-(trifluoromethyl)pyrimidin-1-yl]-2-pyridyl]oxy]phenoxy]acetate] | – | – | 57% | 62%
